Assay results reported in paper PMC5691209, “Specific Targeting of Melanotic Cells with Peptide Ligated Photosensitizers for Photodynamic Therapy” (Scientific Reports, 2017).

Columns and labels:
[1] = system: B16-F10 mouse melanoma cells; experiment: Melanin assay (extra- and intracellular melanin production); assay type: cell-based; conditions: B16-F10, 72 h at 37 °C, OD at 475 nm, α-MSH 10 nM, NAP, HPPH-NAP, MB, HPPH 1 µM, mean of three independent experiments
Method: B16-F10 mouse melanoma cells or human mid-pigmented melanoma cells FM55 were seeded in Nunc 6-well tissue culture plates using DMEM medium without phenol red. After overnight incubation of the cells at 37 °C, various photosensitizers (1 µM) or peptide conjugated photosensitizers (1 µM) were added at room temperature and the cells were incubated at 37 °C for 72 h. After three days of incubation, supernatants of cell (200 µL) were pipetted out from Nunc 6-well tissue culture plates as extracellular melanin pigment and three concurrent absorption measurements were taken at 475 nm using a Spectra Max MS microplate/cuvette reader (Fig. 3c,e). Adherent cells in the Nunc 6-well plates were detached with 0.02% EDTA and centrifuged at 2000 rpm for 3 min. […] Three concurrent absorption measurements were taken at 475 nm using a Spectra Max MS microplate/cuvette reader (Fig. 3d,f). […]
B16-F10 and FM55 melanin assays are represented as the average of three independent experiments expressed as Mean ± SEM. Differences between various groups were calculated using one way ANOVA post Bonferroni’s multiple comparison test and results were reported as significant if P-value was below 0.05. Phototoxicity SRB data of B16-F10, MeL, FM55 and N/TERT-1 was analyzed via student t test and significance was reported if P-value was below 0.05.

[2] = system: B16-F10 melanoma cells; experiment: Cell proliferation with LED light irradiation (Incucyte confluence); assay type: cell-based, mouse; conditions: 5 µM
Method: B16-F10 murine melanoma cells were seeded at a density of 3000–4000 cells per well in 96-well black-view Perkin-Elmer plates using DMEM medium without phenol red. After an overnight incubation at 37 °C, the medium was aspirated from the wells and varying concentrations of synthetic peptide-photosensitizer constructs diluted in DMEM medium were added to the cells. The cells were incubated in dark at 37 °C for 4 h and then washed twice with 1X PBS buffer (200 µL). Fresh medium (300 µL) was added to the wells before placing the plates in the Incucyte ZOOM live cell imaging machine to capture the images after every hour. Percentage of confluence was measured over a time period of 24–72 h. For skin keratinocyte cell line N/TERT-1, the starting confluence was 75–85% of cell density for the initial light experiments. The higher cell density was used to mimic the physiological condition in the body, where keratinocytes are present in much larger numbers (30:1) than melanocytes.
This combinatorial equipment comprises light irradiation system with multiple wavelengths LED (From UVA to near IR) assembled with well-established incucyte that contains incubator and light microscope. […] Incucyte light microscope was used to capture images of the cell growth at every hour or two, from which percentage confluence (i.e. cell densities) were calculated. […]

| Molecule | extra- and intracellular melanin production [1] | light induced cytotoxicity (cell proliferation) ([2]; B16-F10, 627 nm LED light 0.10 mW/cm^2, 48 h continuously) | light induced cytotoxicity (cell proliferation) ([2]; B16-F10, 660 nm LED light 0.10 mW/cm^2, 48 h continuously) |
| --- | --- | --- | --- |
| 2-(1-hexyloxyethyl)-2-devinyl pyropheophorbide [HPPH] | did not induce any melanin production | cytotoxicity was observed | cytotoxicity was observed |
| CN(C)c1ccc2nc3ccc(=[N+](C)C)cc-3sc2c1 [MB, methylene blue] | did not induce any melanin production |  |  |
